{
  "source": "patent US20230241167A1",
  "about": "“Use of Caveolin-1 Scaffolding Domain Peptides for Treating Disease and Disorders” (MUSC Foundation for Research Development, priority 2020, published 2023)",
  "key": {"[1]": {"tested_on": "Ang II-infused mice", "test": "Angiotensin II-induced congestive heart failure (CHF) model", "format": "in vivo", "method": "FIG. 1 provides an overview of an experiment using Full-Length CSD, 82-89, 88-95, and 94-101 (SEQ ID NO:1, SEQ ID NO:2, SEQ ID NO:3, and SEQ ID NO:4 respectively).\nYoung mice (3 months old) infused with Ang II or vehicle for two weeks received daily i.p. injections of CSD, the indicated subdomains or scrambled CSD (0.8 μmol/kg). Mice were evaluated by Echocardiography for changes in posterior wall thickness (pWTh), fractional shortening (FS), cardiac output (CO), ejection fraction (EF), and isovolumic relaxation time (IVRT). Significant changes are shown as ***p<0.001 for Sham+Veh vs AngII+Veh. Significant suppression of AngII-induced changes is shown as ^p<0.05, ^^p<0.01, and ^^^p<0.001 for AngII+Veh vs AngII+CSD or AngII+CSD subdomains. The number of mice used in each treatment are shown in the HW/BW data.\nYoung mice (3 months old) infused with Ang II or vehicle for two weeks received daily i.p. injections of the indicated subdomains of CSD. The results of a typical experiment for Col I and HSP47 (FIG. 4) and for microvascular leakage (FIG. 5) are shown in Western blots (2 to 3 mice per group). The data are quantified below (n=4). Significant changes are shown as *p<0.05 and **p<0.01 for Sham+Veh vs Ang II+Veh. Significant suppression of Ang II-induced changes by subdomains are shown as ^p<0.05, […], and ^^^p<0.001 for Ang II+Veh vs Ang II+CSD subdomains.\nYoung mice (3 months old) infused with Ang II or vehicle for two weeks received daily i.p. injections of W82-89. IgG heavy chain (IgGH) leakage and Col I accumulation are shown in Western blots. The actin loading control is present twice because IgGH was analyzed in the supernatant fraction of heart homogenate while Col I is found in the pellet fraction. In the quantitation (n=4), significant changes are shown as **p<0.01 and ***p<0.001 for Sham+Veh vs Ang II+Veh and ^^p<0.01 and ^^^p<0.001 for reversal of AngII-induced changes by W82-89."}, "[2]": {"test": "Plasma level of fluoresceinated W82-89 after i.p. or i.n. delivery", "set-up": "species or system mice", "conditions": "mouse, in vivo", "method": "administration of the water soluble CSD peptides is a promising route of delivery. Two mice received a single i.p. injection of 0.8 μmol/kg fluoresceinated W82-89 in 100 μl PBS. Two mice received fluoresceinated W82-89 i.n. (4 μmol/kg in 30 μl PBS (15 μl per nostril)). Using calibrated capillary tubes, 50 μl of blood was collected from the maxillary vein from one mouse from each pair at 3 min, 30 min, 2 h, and 6 h; and from the other mouse from each pair at 10 min, 1 h, 4 h, and 8 h. Blood was immediately diluted with 200 μl PBS/10 mM EDTA, and centrifuged to harvest plasma. The level of W82-89 in the plasma was determined using a fluorescent plate reader."}, "[3]": {"conditions": "in vivo, ip", "method": "Following a single i.p. dose of the indicated fluorescent peptides, blood was collected from the maxillary vein at intervals and the levels of the peptides in plasma derived from the blood was determined using a fluorescent plate reader."}},
  "note": "Square brackets hold non-standard residues; d marks the D form. Peptide text beside a SMILES is read from it.",
  "data": [
    {"smiles": "CC[C@H](C)[C@H](NC(=O)CNC(=O)[C@H](CC(=O)O)NC(=O)[C@@H](CCCCN)NC(=O)[C@@H](CCCCN)NC(C)=O)C(=O)N[C@@H](Cc1c[nH]c2ccccc12)C(=O)N[C@@H](CCCCN)C(=O)N[C@@H](C)C(=O)N[C@@H](CO)C(=O)N[C@@H](Cc1ccccc1)C(=O)N[C@H](CCCCN)C(=O)N[C@H](CCCCN)C(N)=O", "note": "[W82-89] (Ac-[dK][dK]DGIWKASF[dK][dK]-NH2)", "values": [
      {"measurement": "suppression of AngII-induced fibrosis (Col I levels) in the heart", "setting": "[1]; W82-89 experiment (FIG. 6, 7), daily i.p. injections", "value": "suppressed by W82-89 with high significance"},
      {"measurement": "suppression of AngII-induced microvascular leakage in the heart (IgG heavy chain level in the tissue)", "setting": "[1]; Western blot, daily i.p. injections", "value": "suppressed by W82-89 with high significance"},
      {"measurement": "overall effectiveness of domains in the CHF model (summary of FIGS. 1-7)", "setting": "[1]; summary, FIG. 8", "value": "more effective than 82-89 and at least as effective as 88-95"},
      {"measurement": "suppression of the effects of AngII on Heart Weight/Body Weight (HW/BW) ratio", "setting": "[1]; young mice (3 months) infused with Ang II two weeks, daily i.p. injections", "value": "suppressed by W82-89 with high significance"},
      {"measurement": "Area Under the Curve for i.n. delivery relative to i.p. dose", "setting": "[2]", "value": "> 1.5", "unit": "fold"},
      {"measurement": "uptake into plasma following i.p. administration", "setting": "[3]", "value": "much greater than the uptake of CSD or WCSD"}
    ]}
  ]
}
